A short description of data set [1]: Kow distribution coefficient, partition between water and 1-octanol. Format: physicochemical. Particulars: distribution coefficient between water and 1-octanol of the hydroxypyridinone HCl addition salt, according Dubbin et al. From the text: A key feature is the hydro-lipophilic property, which basically correlate with its distribution coefficients (“Kow”).

The conditions of data set [2]: relative to deferoxamine; cited from earlier work.
For data set [3] the following is noted: Berdoukas et al, Lancet 1993; cited from earlier work.
The conditions of data set [4]: Kamiyama et al 1981; cited from earlier work.

In the case of `Cc1c(O)c(=O)ccn1C` [Example 1, 1,2-dimethyl-3-hydroxy-4-pyridinone], in data set [1], the Kow is recorded as 0.17. Besides, in data set [2], the “partition coefficient, times that of deferoxamine” value was 21 times. Further, in data set [3], the “cellular uptake versus deferoxamine” value is recorded as “significantly higher than that of deferoxamine”. For the same molecule, in data set [4], the “lipid peroxidation, hydroxyl radical production, free radical-mediated cell damage” value is “dramatically decrease”.

`CCc1c(O)c(=O)ccn1C` [Example 11, 1-methyl-2-ethyl-3-hydroxy-4-pyridinone]: the Kow in data set [1] is listed as 0.63.

`CCc1c(O)c(=O)ccn1CC` [Example 12, 1,2-diethyl-3-hydroxy-4-pyridinone]: the Kow in data set [1] was 1.78.

The values above are taken from patent US20120077852A1, “HYDROXYPYRIDINONES FOR THE LOCAL TREATMENT OF SKIN MICROCIRCULATORY DISORDERS” (priority 2002, published 2012).
